Source: PMC9488889, “Insight into mode-of-action and structural determinants of the compstatin family of clinical complement inhibitors” (Nature Communications, 2022)
Like-named read-outs stand apart in the source and are kept apart here. Bridge positions count the residues as written; N and C are the ends. Square brackets hold non-standard residues; d marks the D form. Peptide text beside a SMILES is read from it. Trp(1-Me) = Cn1cc(C[C@H](N)C(=O)O)c2ccccc21; NMeI = CC[C@H](C)[C@H](NC)C(=O)O; Sar = CNCC(=O)O

Target: T1, C3b (Homo sapiens, UniProt P01024)
T1 construct: the α’NT, MG6^α−8, anchor, and C-terminal complement (CTC) domains of the α-chain that are all shared between C3c and C3b; purchased Complement Technology (Tyler, TX, USA)
T1 sequence (P01024 23-667 limits assumed): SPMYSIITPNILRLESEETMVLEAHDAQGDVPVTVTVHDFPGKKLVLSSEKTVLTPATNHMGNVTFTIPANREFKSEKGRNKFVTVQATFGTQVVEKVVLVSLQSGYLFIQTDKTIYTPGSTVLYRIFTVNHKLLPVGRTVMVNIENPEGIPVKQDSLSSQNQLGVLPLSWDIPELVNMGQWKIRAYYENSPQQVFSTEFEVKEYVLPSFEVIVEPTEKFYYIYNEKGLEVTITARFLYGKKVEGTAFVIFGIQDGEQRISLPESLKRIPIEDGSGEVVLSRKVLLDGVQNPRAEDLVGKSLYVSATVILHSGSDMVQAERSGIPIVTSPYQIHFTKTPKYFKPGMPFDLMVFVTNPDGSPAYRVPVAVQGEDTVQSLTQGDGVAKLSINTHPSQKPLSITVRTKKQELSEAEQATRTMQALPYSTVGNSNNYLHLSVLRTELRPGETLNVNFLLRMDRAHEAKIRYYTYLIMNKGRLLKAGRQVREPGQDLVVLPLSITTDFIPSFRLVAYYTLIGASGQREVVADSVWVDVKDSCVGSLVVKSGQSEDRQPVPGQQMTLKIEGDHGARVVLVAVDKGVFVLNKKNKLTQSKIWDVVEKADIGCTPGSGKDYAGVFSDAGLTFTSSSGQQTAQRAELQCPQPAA
T1 sequence (P01024 749-1663 limits assumed): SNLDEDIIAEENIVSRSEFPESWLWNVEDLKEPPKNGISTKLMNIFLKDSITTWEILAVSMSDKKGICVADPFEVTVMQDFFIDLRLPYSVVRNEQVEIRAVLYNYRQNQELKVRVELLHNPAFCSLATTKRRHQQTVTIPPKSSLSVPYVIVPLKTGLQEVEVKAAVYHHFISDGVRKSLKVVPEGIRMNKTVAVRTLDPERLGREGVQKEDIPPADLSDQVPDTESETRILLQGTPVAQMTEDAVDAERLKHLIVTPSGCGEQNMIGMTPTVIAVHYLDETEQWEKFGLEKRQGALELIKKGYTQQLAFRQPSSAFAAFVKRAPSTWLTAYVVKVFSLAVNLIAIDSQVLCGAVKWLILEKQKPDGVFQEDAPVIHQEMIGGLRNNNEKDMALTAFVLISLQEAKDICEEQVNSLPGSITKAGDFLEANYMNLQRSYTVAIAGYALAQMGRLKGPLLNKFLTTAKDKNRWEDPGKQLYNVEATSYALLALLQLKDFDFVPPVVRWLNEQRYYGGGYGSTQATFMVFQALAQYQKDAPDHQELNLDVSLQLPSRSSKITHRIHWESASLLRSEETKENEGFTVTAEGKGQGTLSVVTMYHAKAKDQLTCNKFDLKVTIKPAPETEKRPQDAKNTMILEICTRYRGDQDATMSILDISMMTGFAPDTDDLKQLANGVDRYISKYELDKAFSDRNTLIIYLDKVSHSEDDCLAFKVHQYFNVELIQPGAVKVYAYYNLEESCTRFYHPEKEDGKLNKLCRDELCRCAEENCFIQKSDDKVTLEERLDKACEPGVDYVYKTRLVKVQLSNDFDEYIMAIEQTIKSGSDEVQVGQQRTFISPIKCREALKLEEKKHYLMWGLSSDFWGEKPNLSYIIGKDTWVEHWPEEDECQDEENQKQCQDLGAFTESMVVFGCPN
Assay: SPR kinetic binding studies on immobilized C3b
Details: for kd: Suppl. Fig. 7e, Cp40 analogs at position 5, three SPR experiments
Protocol: All compstatin analogues were characterized concerning affinity and kinetic profiles by surface plasmon resonance (SPR) using a Biacore T200 instrument (Cytiva, Piscataway, USA). Experiments were run at 25 °C in HBST buffer (10 mM HEPES, 150 mM NaCl, 0.05% Tween-20, pH 7.4). C3b was immobilized on a carboxymethyl dextran hydrogel chip (CMD200; XanTec, Düsseldorf, Germany) using standard amine coupling in sodium acetate buffer pH 4.5 at a flow rate of 10 µl/min. Immobilization densities of 8000 and 4000 resonance units (RU) were achieved on separate flow cells. A reference flow cell was activated with the same method (NHS/EDC). All active sites were inactivated and blocked with ethanolamine. A single cycle approach at a flow rate of 30 µl/min was used for kinetic analysis by injecting five increasing concentrations of each compound (0.5–40 nM) consecutively without regeneration in-between injections. Individual injections within a cycle were 120 s long with a 60 sec dissociation phase between injections. After the highest concentration of each derivative, a dissociation period of 6,000–14,400 sec was added to ensure complete dissociation in absence of suitable regeneration method. […] Signals from the reference cell from an ensemble of buffer blank injections were subtracted to correct for buffer effects and injection artefacts. Kinetic data was processed with the Biacore T200 Software (version 3.1; Cytiva) using a single-cycle evaluation setup by global fitting each data set to a 1:1 Langmuir binding model. Association and dissociation rate constants (ka and kd, respectively) were fitted, and the equilibration constant KD was calculated based on the following equation: KD = kd/ka. Each assay was performed at least twice and in duplicate injections.

[1] = Table 1, amine-reactive immobilized C3b, 25 °C, average±SD of three independent SPR experiments, read-out: KD
[2] = pH 7.4, read-out: ka, Dataset 1
[3] = pH 7.4, read-out: ka, Dataset 2
[4] = pH 7.4, read-out: ka, Dataset 3
[5] = source data of Table 1, single SPR dataset 1, read-out: KD, Dataset 1
[6] = source data of Table 1, single SPR dataset 2, read-out: KD, Dataset 2
[7] = source data of Table 1, single SPR dataset 3, read-out: KD, Dataset 3

SMILES | Kd [1] [nM] | kon (pH 7.4, read-out: ka) [M⁻¹ s⁻¹] | kon [2] [M⁻¹ s⁻¹] | kon [3] [M⁻¹ s⁻¹] | kon [4] [M⁻¹ s⁻¹] | Kd [5] [nM] | Kd [6] [nM] | Kd [7] [nM] | kd
CC[C@H](C)[C@H](NC(=O)[C@H](N)Cc1ccc(O)cc1)C(=O)N[C@H]1CSSC[C@@H](C(=O)N(C)[C@H](C(N)=O)[C@@H](C)CC)NC(=O)[C@H](CO)NC(=O)[C@H](Cc2c[nH]cn2)NC(=O)[C@H](C)NC(=O)CN(C)C(=O)[C@H](Cc2c[nH]c3ccccc23)NC(=O)[C@H](CC(=O)O)NC(=O)[C@H](CCC(N)=O)NC(=O)[C@H](Cc2cn(C)c3ccccc23)NC(=O)[C@H](C(C)C)NC1=O [Cp40 R12S] (H-[dY]ICV[Trp(1-Me)]QDW[Sar]AHSC[NMeI]-NH2; disulfide 3-13) | 9.9 ± 0.5 | 200000 | 140000 | 180000 | 220000 | 10.2 | 10.3 | 9.22 | 
CC[C@H](C)[C@H](NC(=O)[C@H](N)Cc1ccc(O)cc1)C(=O)N[C@H]1CSSC[C@@H](C(=O)N(C)[C@H](C(N)=O)[C@@H](C)CC)NC(=O)[C@H](CCCNC(=N)N)NC(=O)[C@H](Cc2c[nH]cn2)NC(=O)[C@H](C)NC(=O)CN(C)C(=O)[C@H](Cc2c[nH]c3ccccc23)NC(=O)[C@H](CO)NC(=O)[C@H](CCC(N)=O)NC(=O)[C@H](Cc2cn(C)c3ccccc23)NC(=O)[C@H](C(C)C)NC1=O [Cp40 D7S] (H-[dY]ICV[Trp(1-Me)]QSW[Sar]AHRC[NMeI]-NH2; disulfide 3-13) | 5.6 ± 1.3 | 100000 | 80000 | 50000 | 170000 | 4.85 | 7.48 | 4.45 | 
CC[C@H](C)[C@H](NC(=O)[C@H](N)Cc1ccc(O)cc1)C(=O)N[C@H]1CSSC[C@@H](C(=O)N(C)[C@H](C(N)=O)[C@@H](C)CC)NC(=O)[C@H](CCCNC(=N)N)NC(=O)[C@H](Cc2c[nH]cn2)NC(=O)[C@H](C)NC(=O)CN(C)C(=O)[C@H](Cc2c[nH]c3ccccc23)NC(=O)[C@H](CC(=O)O)NC(=O)[C@H](CCC(N)=O)NC(=O)[C@H](Cc2cn(CCC(C)C)c3ccccc23)NC(=O)[C@H](C(C)C)NC1=O [1(3Me)BuW] |  | 200000 |  |  |  |  |  |  | 0.7 ± 0.0 10-3 s-1
CC[C@H](C)[C@H](NC(=O)[C@H](N)Cc1ccc(O)cc1)C(=O)N[C@H]1CSSC[C@@H](C(=O)N[C@@H](C)C(N)=O)NC(=O)[C@H](CCCNC(=N)N)NC(=O)[C@H](Cc2c[nH]cn2)NC(=O)[C@H](C)NC(=O)CN(C)C(=O)[C@H](Cc2c[nH]c3ccccc23)NC(=O)[C@H](CC(=O)O)NC(=O)[C@H](CCC(N)=O)NC(=O)[C@H](Cc2cn(C)c3ccccc23)NC(=O)[C@H](C(C)C)NC1=O [Cp40 mI14A] (H-[dY]ICV[Trp(1-Me)]QDW[Sar]AHRCA-NH2; disulfide 3-13) |  | 3e+06 ± 1.6e+06 | 4.23e+06 | 1.11e+06 | 3.53e+06 |  |  |  | 
CC[C@H](C)[C@H](NC(=O)[C@H](N)Cc1ccc(O)cc1)C(=O)N[C@H]1CSSC[C@@H](C(=O)N(C)[C@H](C(N)=O)[C@@H](C)CC)NC(=O)[C@H](CCCNC(=N)N)NC(=O)[C@H](Cc2c[nH]cn2)NC(=O)[C@H](C)NC(=O)CN(C)C(=O)[C@H](Cc2c[nH]c3ccccc23)NC(=O)[C@H](CCC(=O)O)NC(=O)[C@H](CCC(N)=O)NC(=O)[C@H](Cc2cn(C)c3ccccc23)NC(=O)[C@H](C(C)C)NC1=O [Cp40 D7E] (H-[dY]ICV[Trp(1-Me)]QEW[Sar]AHRC[NMeI]-NH2; disulfide 3-13) |  | 900000 ± 200000 | 1.17e+06 | 650000 | 730000 |  |  |  | 
CC[C@H](C)[C@H](NC(=O)[C@H](N)Cc1ccc(O)cc1)C(=O)N[C@H]1CSSC[C@@H](C(=O)N(C)[C@H](C(N)=O)[C@@H](C)CC)NC(=O)[C@H](CCCNC(=N)N)NC(=O)[C@H](Cc2c[nH]cn2)NC(=O)[C@H](C)NC(=O)CN(C)C(=O)[C@H](Cc2c[nH]c3ccccc23)NC(=O)[C@H](CC(=O)O)NC(=O)[C@H](CCC(N)=O)NC(=O)[C@H](Cc2cn(CC)c3ccccc23)NC(=O)[C@H](C(C)C)NC1=O [1EtW] |  | 700000 ± 300000 |  |  |  |  |  |  | 1.2 ± 0.3 10-3 s-1
CCCCn1cc(C[C@@H]2NC(=O)[C@H](C(C)C)NC(=O)[C@@H](NC(=O)[C@@H](NC(=O)[C@H](N)Cc3ccc(O)cc3)[C@@H](C)CC)CSSC[C@@H](C(=O)N(C)[C@H](C(N)=O)[C@@H](C)CC)NC(=O)[C@H](CCCNC(=N)N)NC(=O)[C@H](Cc3c[nH]cn3)NC(=O)[C@H](C)NC(=O)CN(C)C(=O)[C@H](Cc3c[nH]c4ccccc34)NC(=O)[C@H](CC(=O)O)NC(=O)[C@H](CCC(N)=O)NC2=O)c2ccccc21 [1BuW] |  | 200000 |  |  |  |  |  |  | 0.5 ± 0.2 10-3 s-1
CC[C@H](C)[C@H](NC(=O)[C@H](C)N)C(=O)N[C@H]1CSSC[C@@H](C(=O)N(C)[C@H](C(N)=O)[C@@H](C)CC)NC(=O)[C@H](CCCNC(=N)N)NC(=O)[C@H](Cc2c[nH]cn2)NC(=O)[C@H](C)NC(=O)CN(C)C(=O)[C@H](Cc2c[nH]c3ccccc23)NC(=O)[C@H](CC(=O)O)NC(=O)[C@H](CCC(N)=O)NC(=O)[C@H](Cc2cn(C)c3ccccc23)NC(=O)[C@H](C(C)C)NC1=O [Cp40 y1A] (H-AICV[Trp(1-Me)]QDW[Sar]AHRC[NMeI]-NH2; disulfide 3-13) | 3.8 ± 0.5 | 400000 | 470000 |  | 290000 | 4.11 | 4.27 | 3.1 | 
CC[C@H](C)[C@H](NC(C)=O)C(=O)N[C@H]1CSSC[C@@H](C(=O)N(C)[C@H](C(N)=O)[C@@H](C)CC)NC(=O)[C@H](CCCNC(=N)N)NC(=O)[C@H](Cc2c[nH]cn2)NC(=O)[C@H](C)NC(=O)CN(C)C(=O)[C@H](Cc2c[nH]c3ccccc23)NC(=O)[C@H](CC(=O)O)NC(=O)[C@H](CCC(N)=O)NC(=O)[C@H](Cc2cn(C)c3ccccc23)NC(=O)[C@H](C(C)C)NC1=O [Cp20, reference compound] | 3.4 ± 0.6 | 1.3e+06 ± 300000 | 1.63e+06 | 1.23e+06 | 960000 | 3.78 | 2.6 | 3.76 | 
CC[C@H](C)[C@H](NC(=O)[C@H](N)Cc1ccc(O)cc1)C(=O)N[C@H]1CSSC[C@@H](C(=O)N(C)[C@H](C(N)=O)[C@@H](C)CC)NC(=O)[C@H](CO)NC(=O)[C@H](Cc2c[nH]cn2)NC(=O)[C@H](C)NC(=O)CN(C)C(=O)[C@H](Cc2c[nH]c3ccccc23)NC(=O)[C@H](CO)NC(=O)[C@H](CCC(N)=O)NC(=O)[C@H](Cc2cn(C)c3ccccc23)NC(=O)[C@H](C(C)C)NC1=O [Cp40 D7S/R12S] (H-[dY]ICV[Trp(1-Me)]QSW[Sar]AHSC[NMeI]-NH2; disulfide 3-13) | 59.1 ± 41.3 | 100000 | 20000 | 120000 | 220000 | 117 | 34.7 | 25.5 | 
CC[C@H](C)[C@H](NC(=O)[C@H](N)Cc1ccc(O)cc1)C(=O)N[C@H]1CSSC[C@@H](C(=O)N(C)[C@H](C(N)=O)[C@@H](C)CC)NC(=O)[C@H](CCCNC(N)=O)NC(=O)[C@H](Cc2c[nH]cn2)NC(=O)[C@H](C)NC(=O)CN(C)C(=O)[C@H](Cc2c[nH]c3ccccc23)NC(=O)[C@H](CC(=O)O)NC(=O)[C@H](CCC(N)=O)NC(=O)[C@H](Cc2cn(C)c3ccccc23)NC(=O)[C@H](C(C)C)NC1=O [Cp40 R12Cit] |  | 600000 ± 100000 | 320000 | 670000 | 790000 |  |  |  | 
